# From US5508424A, “4-arylisoindole analgesics” (Ortho Pharmaceutical Corporation, priority 1993, dated 1996)
# Like-named read-outs stand apart in the source and are kept apart here.
# System: Acetylcholine-Bromide Induced Abdominal Constriction
# Test: Mouse Acetylcholine Bromide-Induced Abdominal Constriction Assay
# Type: in vivo
# Settings: for ED50: po, dose producing 50% analgesia, probit analysis; for inhibition in vivo at 30 mg/kg: @ 30 mpk/po
# Procedure: Mouse Acetylcholine Bromide-Induced Abdominal Constriction Assay
# The mouse acetylcholine-induced abdominal constiction assay, as described by Collier et al. in Brit. J. Pharmacol. Chem. Ther., 32: 295-310, 1968, with minor modifications was used to assess analgesic potency of the compounds of formula (I). The test drugs or appropriate vehicle were administered orally (p.o.) and 30 minutes later the animal received an intraperitoneal (i.p.) injection of 5.5 mg/kg acetylcholine bromide (Matheson, Coleman and Bell, East Rutherford, N.J.). The mice were then placed in groups of three into glass bell jars and observed for a ten minute observation period for the occurrence of an abdominal constriction response (defined as a wave of constriction and elongation passing caudally along the abdominal wall, accompanied by a twisting of the trunk and followed by extension of the hind limbs). The percent inhibition of this response to a nociceptive stimulus (equated to % analgesia) was calculated as follows: The % Inhibition of response, i.e., % analgesia is equal to the difference between the No. of control animals response and the No. of drug-treated animals response times 100 divided by the No. of control animals responding.
# At least 15 animals were used for control and in each of the drug treated groups. At least three doses were used to determine each dose response curve and ED50 (that dose which would produce 50% analgesia). The ED50 values and their 95% fiducial limits were determined by a computer assisted probit analysis.
# [1] = Mus musculus, 0.5 h, acetylcholine bromide 5.5 mg/kg i.p. 30 min after drug, % analgesia
structure (smiles),measurement,setting,value
CN1C[C@H]2CCC[C@@H](c3ccccc3)[C@@H]2C1 (relative stereo) [Cp-13],ED50,"Mus musculus, read-out: ED50",8.35 mg/kg
CN1C[C@H]2CCC[C@@H](c3ccc(C(F)(F)F)cc3)[C@@H]2C1 (relative stereo) [Cp-16],ED50,"Mus musculus, read-out: ED50",4.6 mg/kg
CN1C[C@@H]2CCC[C@H](c3ccccc3)[C@@H]2C1 (relative stereo) [Cp-43],ED50,"Mus musculus, read-out: ED50",4.9 mg/kg
FC(F)(F)c1ccc([C@H]2CCC[C@@H]3CN(CCC(c4ccccc4)c4ccccc4)C[C@H]32)cc1 (relative stereo) [Cp-22],inhibition in vivo at 30 mg/kg,[1],13.3%
COc1cccc([C@@H]2CCC[C@H]3CN(C)C[C@H]32)c1 (relative stereo) [Cp-1],inhibition in vivo at 30 mg/kg,[1],30 to 40%
"Cc1cccc([C@@H]2CCC[C@@H]3CN(C)C[C@@H]32)c1.O=C(O)/C=C/C(=O)O [Cp-24+, (+)3aα,4α,7aβ Octahydro-2-methyl-4-(3-methylphenyl)-1H-isoindole Monofumarate]",ED50,,21.6 mpk
CN1C[C@H]2CCC[C@@H](c3ccc(Cl)c(Cl)c3)[C@@H]2C1 (relative stereo) [Cp-15],ED50,"Mus musculus, read-out: ED50",7 mg/kg
"Clc1ccc([C@H]2CCC[C@H]3CNC[C@H]32)cc1Cl (relative stereo) [Cp-35, 4β-(3,4-dichlorophenyl)-3aα,7aα-octahydro-1H-isoindole]",ED50,"Mus musculus, read-out: ED50",9.63 mg/kg
CCCCN1CC2CCCC(c3cccc(C(F)(F)F)c3)C2C1 (stereo not shown) [Cp-18],inhibition in vivo at 30 mg/kg,[1],66.7%
COc1cccc([C@@H]2CCC[C@@H]3CN(Cc4ccccc4)C[C@H]32)c1 (relative stereo) [Cp-6],inhibition in vivo at 30 mg/kg,[1],13.3%
CN1C[C@@H]2CCC[C@@H](c3ccc(Br)cc3)[C@@H]2C1 (relative stereo) [Cp-34],inhibition in vivo at 30 mg/kg,[1],100%
CN1C[C@H]2CCC[C@H](c3ccc(Cl)c(Cl)c3)[C@@H]2C1 (relative stereo) [Cp-14],ED50,"Mus musculus, read-out: ED50",2.8 mg/kg
"CN1C[C@@H]2CCC[C@H](c3ccc(Br)cc3)[C@@H]2C1 (relative stereo) [Cp-44, 4β-bromophenyl-2-methyl-3aα,7aα-octahydro-1H-isoindole]",ED50,"Mus musculus, read-out: ED50",9.15 mg/kg
"Cc1cccc(C2CCCC3CN(C)CC32)c1.O=C(O)/C=C/C(=O)O (single isomer, unassigned; (-)) [Cp-24-, (-)3aα,7aβ Octahydro-2-methyl-4α-(3-methylphenyl)-1H-isoindole Monofumarate]",ED50,,24.9 mpk
"Cc1cccc([C@@H]2CCC[C@@H]3CN(C)C[C@H]32)c1 (relative stereo) [Cp-24, 3aα,7aβ Octahydro-2-methyl-4α-(3-methylphenyl)-1H-isoindole Monofumarate]",ED50,"Mus musculus, read-out: ED50",23.6 mg/kg
CN1C[C@H]2CCC[C@H](c3ccc(C(F)(F)F)cc3)[C@@H]2C1 (relative stereo) [Cp-17],inhibition in vivo at 3 mg/kg,"Mus musculus, 0.5 h, @ 3 mpk/po, acetylcholine bromide 5.5 mg/kg i.p. 30 min after drug, % analgesia",33%
COc1cccc([C@@H]2CCC[C@H]3CN(C)C[C@H]32)c1OC (relative stereo) [Cp-8],inhibition in vivo at 30 mg/kg,[1],78.8%
CN1C[C@@H]2CCC[C@H](c3ccc(Cl)c(Cl)c3)[C@@H]2C1 (relative stereo) [Cp-46],inhibition in vivo at 30 mg/kg,[1],100%
"CN1C[C@H]2CCC[C@@H](c3cccc(C(F)(F)F)c3)[C@@H]2C1 (relative stereo) [Cp-7, 3aα, 4α,7aβ-Octahydro-2-methyl-4-(3-trifluoromethylphenyl)-1H-isoindole Monofumarate]",ED50,"Mus musculus, read-out: ED50",7.46 mg/kg
